Measurements from ChEMBL document CHEMBL5512606, “An overview of the functions of p53 and drugs acting either on wild- or mutant-type p53” (Eur J Med Chem, 2024).

What was measured:
[1] = Half life in male Crl:CD Sprague-Dawley rat at 40 to 80 mg/kg/day, po or iv measured after 28 days; format: ADME, organism-based; details: in vivo, dose 40-80 mg/kg/day, time 28 day
[2] = Oral bioavailability in male Crl:CD Sprague-Dawley rat at 40 to 80 mg/kg/day measured after 28 days; format: ADME, organism-based; details: in vivo, dose 40-80 mg/kg/day, time 28 day
[3] = Oral bioavailability in F344/N Jcl-rnu rat at 40 to 80 mg/kg/day measured after 28 days; format: ADME, organism-based; details: in vivo, dose 40-80 mg/kg/day, time 28 day
[4] = Half life in F344/N Jcl-rnu rat at 40 to 80 mg/kg/day, po or iv measured after 28 days; format: ADME, organism-based; details: in vivo, dose 40-80 mg/kg/day, time 28 day
RS4-11 = experiment: Antitumor activity in human RS4-11 cells xenografted in mouse model assessed as tumor growth regression at 200 mg/kg,po relative to control; format: functional
LNCaP = experiment: Antitumor activity in human LNCaP cells xenografted in mouse model assessed as tumor growth regression at 200 mg/kg,po relative to control; format: functional

half-life [1]	bioavailability [2]	bioavailability [3]	half-life [4]	Structure (SMILES)	Activity (RS4-11)	Activity (LNCaP)
14 h	12%	12%	14 h	COc1ccc(/C=C/c2nc(NCCCN(C)C)c3ccccc3n2)cc1	–	–
–	–	–	–	CC(C)(C)C[C@@H]1N[C@@H](C(=O)N[C@H]2CC[C@H](O)CC2)[C@H](c2cccc(Cl)c2F)[C@]12C(=O)Nc1cc(Cl)ccc12 [SAR-405838]	100%	80%
